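Following 48 hours of exposure in 96-well plates, responses at five concentrations were used to interpolate endpoints linearly. GI50: concentration for 50% inhibition of growth. TGI marks complete inhibition of growth.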
Legend:
Test in all cases: growth of human tumour cells (NCI), 48 h
NCI-H23 lung = test system: NCI-H23 lung
SNB-75 CNS = test system: SNB-75 CNS
ACHN renal = test system: ACHN renal
COLO 205 colon = test system: COLO 205 colon
KM12 colon = test system: KM12 colon
T-47D breast = test system: T-47D breast
OVCAR-3 ovarian = test system: OVCAR-3 ovarian
SK-MEL-28 melanoma = test system: SK-MEL-28 melanoma
HS 578T breast = test system: HS 578T breast
K-562 leukemia = test system: K-562 leukemia
M14 melanoma = test system: M14 melanoma
OVCAR-4 ovarian = test system: OVCAR-4 ovarian
IGROV1 ovarian = test system: IGROV1 ovarian
HCT-116 colon = test system: HCT-116 colon
HT29 colon = test system: HT29 colon
A549 NSCLC = test system: A549 NSCLC
MALME-3M melanoma = test system: MALME-3M melanoma
RPMI-8226 leukemia = test system: RPMI-8226 leukemia
UACC-257 melanoma = test system: UACC-257 melanoma
HCC-2998 colon = test system: HCC-2998 colon
PC-3 prostate = test system: PC-3 prostate
MDA-MB-468 breast = test system: MDA-MB-468 breast
NCI/ADR-RES ovarian = test system: NCI/ADR-RES ovarian
SK-MEL-5 melanoma = test system: SK-MEL-5 melanoma
DU-145 prostate = test system: DU-145 prostate
NCI-H522 lung = test system: NCI-H522 lung
CCRF-CEM leukemia = test system: CCRF-CEM leukemia
SNB-19 CNS = test system: SNB-19 CNS
UO-31 renal = test system: UO-31 renal
HCT-15 colon = test system: HCT-15 colon
786-0 renal = test system: 786-0 renal
A498 renal = test system: A498 renal
RXF 393 renal = test system: RXF 393 renal
MOLT-4 leukemia = test system: MOLT-4 leukemia
TK-10 renal = test system: TK-10 renal
SW-620 colon = test system: SW-620 colon
MCF7 breast = test system: MCF7 breast
CAKI-1 renal = test system: CAKI-1 renal
OVCAR-5 ovarian = test system: OVCAR-5 ovarian
SF-268 CNS = test system: SF-268 CNS
NCI-H460 lung = test system: NCI-H460 lung
EKVX NSCLC = test system: EKVX NSCLC
OVCAR-8 ovarian = test system: OVCAR-8 ovarian
U251 CNS = test system: U251 CNS
NCI-H226 lung = test system: NCI-H226 lung
SK-OV-3 ovarian = test system: SK-OV-3 ovarian
UACC-62 melanoma = test system: UACC-62 melanoma
SF-295 CNS = test system: SF-295 CNS
MDA-MB-435 = test system: MDA-MB-435
HOP-62 NSCLC = test system: HOP-62 NSCLC
HL-60(TB) leukemia = test system: HL-60(TB) leukemia
SK-MEL-2 melanoma = test system: SK-MEL-2 melanoma
SN12C renal = test system: SN12C renal
BT-549 breast = test system: BT-549 breast
SF-539 CNS = test system: SF-539 CNS
LOX IMVI melanoma = test system: LOX IMVI melanoma
MDA-MB-231 breast = test system: MDA-MB-231 breast
HOP-92 NSCLC = test system: HOP-92 NSCLC

Cc1ccccc1[C@H]1C(C(=O)c2ccc(Cl)cc2)C2(N[C@@H]1c1ccccc1)C(=O)Nc1ccccc12 (stereo partly specified)
GI50 (NCI-H23 lung): 5.67 µM | TGI (NCI-H23 lung): 12.2 µM | GI50 (SNB-75 CNS): 2.63 µM | TGI (SNB-75 CNS): 14.5 µM | GI50 (ACHN renal): 6.46 µM | TGI (ACHN renal): 14.8 µM | GI50 (COLO 205 colon): 7.31 µM | TGI (COLO 205 colon): 13.8 µM | GI50 (KM12 colon): 6.73 µM | TGI (KM12 colon): 16.2 µM | GI50 (T-47D breast): 4.91 µM | TGI (T-47D breast): 11.6 µM | GI50 (OVCAR-3 ovarian): 1.64 µM | TGI (OVCAR-3 ovarian): 7.17 µM | GI50 (SK-MEL-28 melanoma): 5.91 µM | TGI (SK-MEL-28 melanoma): 11.7 µM | GI50 (HS 578T breast): 4.76 µM | TGI (HS 578T breast): 15.3 µM | GI50 (K-562 leukemia): 5.11 µM | TGI (K-562 leukemia): 42.3 µM | GI50 (M14 melanoma): 5.62 µM | TGI (M14 melanoma): 11.7 µM | GI50 (OVCAR-4 ovarian): 6.08 µM | TGI (OVCAR-4 ovarian): 16.2 µM | GI50 (IGROV1 ovarian): 5.63 µM | TGI (IGROV1 ovarian): 14 µM | GI50 (HCT-116 colon): 2.46 µM | TGI (HCT-116 colon): 8.7 µM | GI50 (HT29 colon): 3.42 µM | TGI (HT29 colon): 11.4 µM | GI50 (A549 NSCLC): 5.81 µM | TGI (A549 NSCLC): 20.4 µM | GI50 (MALME-3M melanoma): 6 µM | TGI (MALME-3M melanoma): 11.6 µM | GI50 (RPMI-8226 leukemia): 7.66 µM | TGI (RPMI-8226 leukemia): 28.3 µM | GI50 (UACC-257 melanoma): 5.81 µM | TGI (UACC-257 melanoma): 15.3 µM | GI50 (HCC-2998 colon): 5.95 µM | TGI (HCC-2998 colon): 12.2 µM | GI50 (PC-3 prostate): 2.08 µM | TGI (PC-3 prostate): 10.5 µM | GI50 (MDA-MB-468 breast): 0.957 µM | TGI (MDA-MB-468 breast): 2.74 µM | GI50 (NCI/ADR-RES ovarian): 4.41 µM | TGI (NCI/ADR-RES ovarian): 10.8 µM | GI50 (SK-MEL-5 melanoma): 5.25 µM | TGI (SK-MEL-5 melanoma): 10.6 µM | GI50 (DU-145 prostate): 4.91 µM | TGI (DU-145 prostate): 12.8 µM | GI50 (NCI-H522 lung): 4.46 µM | TGI (NCI-H522 lung): 11.5 µM | GI50 (CCRF-CEM leukemia): 4.8 µM | TGI (CCRF-CEM leukemia): 26.8 µM | GI50 (SNB-19 CNS): 8.35 µM | TGI (SNB-19 CNS): 26.6 µM | GI50 (UO-31 renal): 4.6 µM | TGI (UO-31 renal): 10.8 µM | GI50 (HCT-15 colon): 5.11 µM | TGI (HCT-15 colon): 14.1 µM | GI50 (786-0 renal): 6.9 µM | TGI (786-0 renal): 16.3 µM | GI50 (A498 renal): 6.77 µM | TGI (A498 renal): 12.9 µM | GI50 (RXF 393 renal): 1.42 µM | TGI (RXF 393 renal): 6.02 µM | GI50 (MOLT-4 leukemia): 4.14 µM | TGI (MOLT-4 leukemia): 33 µM | GI50 (TK-10 renal): 6.86 µM | TGI (TK-10 renal): 15.8 µM | GI50 (SW-620 colon): 5.54 µM | TGI (SW-620 colon): 13.8 µM | GI50 (MCF7 breast): 2.26 µM | TGI (MCF7 breast): 12.4 µM | GI50 (CAKI-1 renal): 3.62 µM | TGI (CAKI-1 renal): 11.6 µM | GI50 (OVCAR-5 ovarian): 4.37 µM | TGI (OVCAR-5 ovarian): 9.67 µM | GI50 (SF-268 CNS): 5.73 µM | TGI (SF-268 CNS): 17.1 µM | GI50 (NCI-H460 lung): 6.15 µM | TGI (NCI-H460 lung): 14.9 µM | GI50 (EKVX NSCLC): 4.96 µM | TGI (EKVX NSCLC): 17.2 µM | GI50 (OVCAR-8 ovarian): 6.05 µM | TGI (OVCAR-8 ovarian): 13.4 µM | GI50 (U251 CNS): 5.56 µM | TGI (U251 CNS): 13.1 µM | GI50 (NCI-H226 lung): 5.91 µM | TGI (NCI-H226 lung): 12.1 µM | GI50 (SK-OV-3 ovarian): 7.41 µM | TGI (SK-OV-3 ovarian): 31.5 µM | GI50 (UACC-62 melanoma): 2.78 µM | TGI (UACC-62 melanoma): 8.48 µM | GI50 (SF-295 CNS): 5.3 µM | TGI (SF-295 CNS): 13.2 µM | GI50 (MDA-MB-435): 3.65 µM | TGI (MDA-MB-435): 9.28 µM | GI50 (HOP-62 NSCLC): 6.26 µM | TGI (HOP-62 NSCLC): 13 µM | GI50 (HL-60(TB) leukemia): 8.01 µM | TGI (HL-60(TB) leukemia): 30.4 µM | GI50 (SK-MEL-2 melanoma): 5.83 µM | TGI (SK-MEL-2 melanoma): 12.1 µM | GI50 (SN12C renal): 4.92 µM | TGI (SN12C renal): 10.1 µM | GI50 (BT-549 breast): 5.47 µM | TGI (BT-549 breast): 11 µM | GI50 (SF-539 CNS): 6.95 µM | TGI (SF-539 CNS): 13.6 µM | GI50 (LOX IMVI melanoma): 2.51 µM | TGI (LOX IMVI melanoma): 7.97 µM | GI50 (MDA-MB-231 breast): 4.31 µM | TGI (MDA-MB-231 breast): 9.35 µM | GI50 (HOP-92 NSCLC): 2.47 µM | TGI (HOP-92 NSCLC): 8.55 µM

— PubChem BioAssay (NCI)
